The values below come from PMC6648477 (ACS Omega, 2019).

By Kd is commonly meant the free concentration of one partner at which half of the binding sites on the other are occupied at equilibrium, for simple one-to-one binding. Read a high Kd as a looser complex.

Like-named read-outs stand apart in the source and are kept apart here.

Assay [1] deals with hMcl-1 (Homo sapiens, UniProt Q07820). The experiment in a line: FP assay, displacement of F-Puma from hMcl-1. The class given is binding.
In assay [2] the target is hBcl-2 (Homo sapiens, UniProt P10415). The experiment in a line: FP assay, displacement of F-Puma from hBcl-2. The class given is binding.
Assay [3] has as its target mMcl-1 (Mus musculus, UniProt P97287). Kind of assay: 1H,15N HSQC NMR titration, Mcl-1. The class given is binding. Particulars: Mcl-1 Kd by 1H,15N HSQC NMR (N).
In assay [4] the target is double His-TEV-hMcl-1 (Homo sapiens, UniProt Q07820). The experiment in a line: SPR direct binding, Mcl-1.
Assay [5] has as its target Unmodified human Bcl-2 residues 1-207 (hBcl-2) (human, UniProt P10415 1-207). The experiment in a line: fluorescence polarisation. (In fluorescence polarisation assays a small probe gives low polarisation when free and higher when bound to something large.)
The mark [6] stands for this setting: read-out: Bcl-2 eKi, FP assay, NM = not measurable at top concentration (2.5 mM or solubility limit).

Sequence of mMcl-1 (P97287 152-308 limits assumed): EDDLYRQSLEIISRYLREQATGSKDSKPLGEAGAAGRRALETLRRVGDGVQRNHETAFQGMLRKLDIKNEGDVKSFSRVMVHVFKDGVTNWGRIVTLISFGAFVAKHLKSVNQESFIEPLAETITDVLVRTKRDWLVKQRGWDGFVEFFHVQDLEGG
Sequence of hMcl-1 (Q07820 171-327 limits assumed): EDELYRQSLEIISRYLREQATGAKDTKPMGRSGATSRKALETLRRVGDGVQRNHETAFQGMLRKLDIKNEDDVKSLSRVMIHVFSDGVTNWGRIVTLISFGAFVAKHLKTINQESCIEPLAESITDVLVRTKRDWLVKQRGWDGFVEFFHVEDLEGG
Sequence of hBcl-2 (P10415 1-207): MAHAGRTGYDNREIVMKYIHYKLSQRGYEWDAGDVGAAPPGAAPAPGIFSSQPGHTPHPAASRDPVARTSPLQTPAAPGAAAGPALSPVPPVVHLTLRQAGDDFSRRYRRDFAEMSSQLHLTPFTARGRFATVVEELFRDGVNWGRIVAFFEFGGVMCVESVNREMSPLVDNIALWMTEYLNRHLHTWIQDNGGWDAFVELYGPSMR
Sequence of double His-TEV-hMcl-1 (Q07820 171-327 limits assumed): as the sequence (Q07820 171-327 limits assumed) above
Sequence of Unmodified human Bcl-2 residues 1-207 (hBcl-2) (P10415 1-207): as the sequence (P10415 1-207) above

With `O=C(O)c1csc(C2CNc3ccccc3O2)n1` (stereo not drawn) [Compound 23], the Ki in assay [1] is 500 µM; in assay [2] (setting [6]), above 2500 µM. Moreover, in assay [3], the Kd turned out to be 360 µM.

Regarding `O=C(O)c1csc([C@H]2CN(Cc3ccccc3)c3ccccc3O2)n1` [Compound 26], the Ki in assay [1] is 30 µM; in assay [2] (setting [6]), above 2500 µM. The Kd in assay [3] was 110 µM.

`CCN1CC(c2nc(C(=O)O)cs2)Oc2ccccc21` (stereo not drawn) [Compound 24]: the Ki in assay [1] stood at 20 µM; in assay [2] it was 500 µM. The molecule further yielded a dissociation constant Kd in assay [3] of 220 µM.

Take `O=C(O)c1nc(C2COc3ccccc3O2)sc1Cc1ccccc1` (stereo not drawn) [Compound 22]: the Ki in assay [1] amounted to 40 µM; in assay [2], 80 µM. For the same molecule, the Kd in assay [3] was 85 µM; in assay [4] it was 140 µM.

For the molecule `O=C(O)c1csc(C2CN(Cc3ccccc3)c3ccccc3O2)n1` (stereo not drawn) [Compound 25], the Ki worked out at 40 µM in assay [1] and 800 µM in assay [2]. Further, the equilibrium dissociation constant (Kd) in assay [3] is 40 µM; in assay [4], 450 µM.

For `O=C(O)c1csc([C@@H]2CN(Cc3ccccc3)c3ccccc3O2)n1` [Compound 27], the Ki in assay [1] is 40 µM; in assay [2] (setting [6]), above 2500 µM. The Kd in assay [3] turned out to be 140 µM.

B1: Puma peptide (peptide)
peptide: RGEEEQWAREIGAQLRRMADDLN
Turning to B1, in assay [5], the binding result is reported as “binds”.
